Results reported in US20250154169A1, “COMPOUNDS AND METHODS FOR MODULATING SPLICING” (REMIX THERAPEUTICS INC., priority 2021, published 2025).
Counter-ions that a name gives are not always drawn. Like-named read-outs stand apart in the source and are kept apart here.

Columns and labels:
Assay type in all cases: cell-based, human
MYB mRNA = assay: Splicing RT-qPCR assay, MYB canonical (CJ) and alternative (AJ) junction mRNA; conditions: Homo sapiens; for AC50: read-out: MYB AJ (AC50, increase in alternative junction mRNA)
Summary of the method: (§1)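 One-step RT-qPCR on cell lysates, CJ and AJ isoforms quantified; housekeeping normalization GAPDH/GUSB (K562) or PPIA (A673). Cells: A673 in DMEM/10% FBS or K562 in IMDM/10% FBS. Compounds 11-pt 3-fold, top 10 uM, 24 h, 37 °C, 5% CO2.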

Target C mRNA = assay: Splicing RT-qPCR gene panel, Target C canonical junction (CJ) mRNA; conditions: Tables 4A/4B, read-out: Target C (IC50, decrease in CJ mRNA, gene panel)
Summary of the method: (§2)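 Canonical-junction mRNA levels were quantified by RT-qPCR in lysates, using ΔΔCt against a housekeeping gene (GAPDH, GUSB or PPIA) and DMSO wells, expressed as percentage response. Cells (A673 or K562) had been exposed for 24 h at 37° C. to 11 three-fold compound concentrations up to 10 uM, DMSO ≤0.25%.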

SMN2 mRNA = assay: Splicing RT-qPCR gene panel, SMN2 canonical junction (CJ) mRNA; conditions: Homo sapiens, Tables 4A/4B, read-out: SMN2 (IC50, decrease in CJ mRNA, gene panel)
Summary of the method: as §2

HTT mRNA [1] = assay: Splicing RT-qPCR gene panel, HTT canonical junction (CJ) mRNA; conditions: Homo sapiens, Tables 4A/4B, read-out: HTT (IC50, decrease in CJ mRNA, gene panel)
Summary of the method: as §2

HTT mRNA [2] = assay: Splicing RT-qPCR assay, HTT canonical (CJ) and alternative (AJ) junction mRNA; conditions: Homo sapiens, A673 or K562 cells, 24 hours compound treatment; for IC50: 24 h, read-out: HTT CJ (IC50, decrease in canonical junction mRNA); for AC50: read-out: HTT AJ (AC50, increase in alternative junction mRNA)
Summary of the method: as §1

[3] = 24 h, A673 or K562 cells, 24 hours compound treatment, RT-qPCR
[4] = 24 h, A673 or K562 cells, 24 hours compound treatment, RT-qPCR, read-out: MYB CJ (IC50, decrease in canonical junction mRNA)
[5] = Tables 4A/4B, canonical junction qPCR panel, read-out: MYB (IC50, decrease in CJ mRNA, gene panel)

Compound	IC50 (MYB mRNA; [4])	IC50 (MYB mRNA; [5])	IC50 (Target C mRNA; Homo sapiens)	IC50 (SMN2 mRNA)	IC50 (HTT mRNA [1])	IC50 (HTT mRNA [2])	IC50 (Target C mRNA)	AC50 (MYB mRNA; [3])	AC50 (HTT mRNA [2])
Cc1cc2c(N3CCNCC3)ccc(C(=O)Nc3cn[nH]c3)c2o1 [Compound 268]	> 10000 nM	> 10000 nM	> 10000 nM	> 10000 nM	> 10000 nM	> 10000 nM		> 10000 nM	> 10000 nM
Cn1cc2c(N3CCNCC3)ccc(C(=O)Nc3cn[nH]c3)c2n1 [Compound 270]	> 10000 nM	> 10000 nM	> 10000 nM	> 10000 nM	> 10000 nM	> 10000 nM		> 10000 nM	> 10000 nM
Cc1cn2cc(NC(=O)c3ccc(C4CC(C)(C)NC(C)(C)C4)c4cc(C)oc34)cc(F)c2n1 [Compound 271]	1000 to 10000 nM	1000 to 10000 nM	> 10000 nM	100 to 1000 nM	> 10000 nM	> 10000 nM		1000 to 10000 nM	> 10000 nM
Cc1cn2cc(-c3ccc(C(=O)NC4CCNCC4)c4nn(C)cc34)cc(F)c2n1 [Compound 280]	> 10000 nM	> 10000 nM	> 10000 nM	1000 to 10000 nM	1000 to 10000 nM	1000 to 10000 nM		1000 to 10000 nM	1000 to 10000 nM
Cc1cn2nc(-c3ccc(C(=O)NC4CCNCC4)c4nn(C)cc34)cc(C)c2n1 [Compound 281]	1000 to 10000 nM	1000 to 10000 nM	1000 to 10000 nM	100 to 1000 nM	1000 to 10000 nM	1000 to 10000 nM		1000 to 10000 nM	1000 to 10000 nM
Cc1cn2nc(-c3ccc(C(=O)NC4CCNCC4)c4oc(C)cc34)cc(C)c2n1 [Compound 282]	> 10000 nM	> 10000 nM	> 10000 nM	100 to 1000 nM	1000 to 10000 nM	1000 to 10000 nM		> 10000 nM	1000 to 10000 nM
Cc1cn2nc(-c3ccc(C(=O)NC4CCNCC4)c4oc(C)cc34)cc(F)c2n1 [Compound 283]	1000 to 10000 nM	1000 to 10000 nM	> 10000 nM	100 to 1000 nM	1000 to 10000 nM	1000 to 10000 nM		> 10000 nM	> 10000 nM
CCn1cc2c(N3C[C@H]4CC[C@@H](C3)N4)ccc(C(=O)Nc3cc(F)c4nc(C)cn4c3)c2n1 [Compound 289, 4-[(1R,5S)-3,8-diazabicyclo[3.2.1]octan-3-yl]-2-ethyl-N-{8-fluoro-2-methylimidazo[1,2-a]pyridin-6-yl}indazole-7-carboxamide]	100 to 1000 nM	100 to 1000 nM	> 10000 nM	< 100 nM	1000 to 10000 nM	1000 to 10000 nM		100 to 1000 nM	> 10000 nM
Cc1cn2cc(NC(=O)c3ccc(N4CCNCC4)c4cn(CCO)nc34)cc(F)c2n1 [Compound 291, N-{8-fluoro-2-methylimidazo[1,2-a]pyridin-6-yl}-2-(2-hydroxyethyl)-4-(piperazin-1-yl)indazole-7-carboxamide hydrochloride]	100 to 1000 nM	100 to 1000 nM	1000 to 10000 nM	< 100 nM	1000 to 10000 nM	1000 to 10000 nM		100 to 1000 nM	1000 to 10000 nM

Further lines, with some results ahead:

IC50 (MYB mRNA; [4])	IC50 (MYB mRNA; [5])	IC50 (Target C mRNA; Homo sapiens)	IC50 (SMN2 mRNA)	IC50 (HTT mRNA [1])	IC50 (HTT mRNA [2])	IC50 (Target C mRNA)	Compound	AC50 (MYB mRNA; [3])	AC50 (HTT mRNA [2])
< 100 nM	< 100 nM		< 100 nM	100 to 1000 nM	100 to 1000 nM	1000 to 10000 nM	Cc1cn2cc(NC(=O)c3ccc(N4CCNCC4)c4cn(C)nc34)cc(Cl)c2n1 [Compound 269]	< 100 nM	100 to 1000 nM
100 to 1000 nM	100 to 1000 nM	100 to 1000 nM	< 100 nM	100 to 1000 nM	100 to 1000 nM		Cc1cn2cc(NC(=O)c3ccc(N4CCC(N5CCCC5)C4)c4cn(C)nc34)cc(F)c2n1 (stereo not drawn) [Compound 272]	< 100 nM	100 to 1000 nM
100 to 1000 nM	100 to 1000 nM	> 10000 nM	< 100 nM	> 10000 nM	> 10000 nM		Cc1cn2cc(NC(=O)c3ccc(N4CCNCC4)c4cn(C)nc34)nc2c(C)n1 [Compound 273]	100 to 1000 nM	> 10000 nM
100 to 1000 nM	100 to 1000 nM	> 10000 nM	< 100 nM	1000 to 10000 nM	1000 to 10000 nM		Cc1cn2cc(NC(=O)c3ccc(N4CC(C)(C)NC(C)(C)C4)c4cn(C)nc34)cc(F)c2n1 [Compound 274]	100 to 1000 nM	> 10000 nM
100 to 1000 nM	100 to 1000 nM	> 10000 nM	< 100 nM	1000 to 10000 nM	1000 to 10000 nM		Cc1cn2cc(NC(=O)c3ccc(N4CCNCC4)c4cn(C)nc34)cc(C(F)(F)F)c2n1 [Compound 275, 2-methyl-N-[2-methyl-8-(trifluoromethyl)imidazo[1,2-a]pyridin-6-yl]-4-(piperazin-1-yl) indazole-7-carboxamide]	< 100 nM	1000 to 10000 nM
100 to 1000 nM	100 to 1000 nM	1000 to 10000 nM	< 100 nM	1000 to 10000 nM	1000 to 10000 nM		Cc1cn2cc(NC(=O)c3ccc(N4CCC(N(C)C)C4)c4cn(C)nc34)cc(Cl)c2n1 (stereo not drawn) [Compound 278]	< 100 nM	1000 to 10000 nM
100 to 1000 nM	100 to 1000 nM	> 10000 nM	100 to 1000 nM	> 10000 nM	> 10000 nM		Cc1cn2cc(NC(=O)c3ccc(N4CCNCC4)c4c[nH]nc34)cc(Cl)c2n1 [Compound 286]	1000 to 10000 nM	> 10000 nM
100 to 1000 nM	100 to 1000 nM	> 10000 nM	< 100 nM	> 10000 nM	> 10000 nM		Cc1cn2cc(NC(=O)c3ccc(N4CCNCC4)c4cn(C(C)C)nc34)cc(F)c2n1 [Compound 290, N-{8-fluoro-2-methylimidazo[1,2-a]pyridin-6-yl}-2-isopropyl-4-(piperazin-1-yl)indazole-7-carboxamide]	100 to 1000 nM	> 10000 nM
< 100 nM	< 100 nM	1000 to 10000 nM	< 100 nM	1000 to 10000 nM	1000 to 10000 nM		COCCn1cc2c(N3CCNCC3)ccc(C(=O)Nc3cc(F)c4nc(C)cn4c3)c2n1 [Compound 292, N-{8-fluoro-2-methylimidazo[1,2-a]pyridin-6-yl}-2-(2-methoxyethyl)-4-(piperazin-1-yl)indazole-7-carboxamide hydrochloride]	< 100 nM	1000 to 10000 nM
